Assays:
RGCs [1] = test: Application of ATP or P2X7 agonist to isolated rat retinas, RGC damage; assay type: cell-based
Source text: (§1) Adult animals were decapitated and the retinas quickly dissected, flattened onto nitrocellulose filters, and maintained in oxygenated ACSF. Individual RGCs were labeled by shooting 1.3 μm tungsten particles coated with Oregon Green 488 conjugated dextran (Molecular Probes, Inc., Eugene, Oreg.) into the retina using a gene gun (Bio-Rad Laboratories, Hercules, Calif.; Kettunen, et al. (2002) J. Neurosci. Methods 119:37-43). Individual RGCs were imaged by placing the retinas in oxygenated ACSF within a custom-made 4 ml observation chamber on the stage of a Zeiss Axioplan fluorescence microscope equipped with a black and white CCD camera (Chroma DTA, Pisa, Italy). Observations were performed at room temperature (25-28° C.). A 40× Olympus immersion objective (N.A. 0.80) was used and excitation light was kept below 10% of its maximum intensity. Less than 5 RGCs per retina were analyzed to minimize light exposure. Loss of membrane integrity was assessed by adding 1.5 μM PI to the ACSF for 1 minute. Exposure of phospatidylserine on the outer membrane leaflet was evidenced by a 20 minute incubation in ACSF containing 3 μg/ml Cy3-Annexin V. In some experiments, RGCs were preincubated with oxidized-ATP (oATP) for 2 hours or with Brilliant BlueG (BBG) for 30 minutes prior to imaging.
Incubation of isolated rat retinas in 1 mM ATP induced the same effects obtained with repeated pressure increments, causing cell blebbing and uptake of PI in all the RGCs tested (35/35 tested) within 1 hour, except in α-type RGCs (0/15). The same effects were obtained applying the potent P2X7 receptor agonist 2′,3′-benzoyl-4-benzoyl-ATP (BzATP; 0.1 mM; 10/10 non-α-RGCs).

RGCs [2] = test: Pressure-induced RGC damage in isolated rat retinas (pressure controlled incubation, imaging of living RGCs); assay type: cell-based; details: for signs of pressure induced RGC damage: 7×90 (7 one-minute pulses at 90 mm Hg, then 1 hour at 12 mm Hg), 30 U/ml apyrase, 300 μM oATP or 0.5 μM BBG
Experimental: Pressure controlled incubation: A free-standing bioreactor chamber was used for incubation of living retinas (e.g., rat retinas) in artificial cerebrospinal fluid (ACFS; Stacy et al. (2003) J. Comp. Neurol. 456:154-166) under controlled temperature (33±0.5° C.; pH 7.4±0.1), and hydrostatic pressure conditions (10-90 mm Hg, resolution 2 mm Hg; Previti, et al. (2002) IEEE-EMBS Special Topic conference on Molecular, Cellular and Tissue Engineering, 1:157-158). Rat retinas were allowed to stabilize at 12 mm Hg for 5 minutes, and 1 minute pressure increments were applied, reaching a peak value in less than 20 seconds. Consecutive pressure transients were separated by 1 minute at 12 mm Hg. Hydrostatic pressure and pH were regulated by electronically controlled air/CO2 admission in the incubator chamber.
Imaging living RGCs: Experiments were performed on Long Evans rats according to the ARVO and national regulation on animal experimentation. All chemicals were obtained from Sigma (St. Louis, Mo.) unless otherwise specified.
as §1
RGC were incubated with the following agents: 30 U/ml apyrase (an enzyme that degrades extracellular ATP; North, supra); 300 μM oATP (an irreversible blocker of P2X receptors; North, supra); or 0.5 μM BBG (a selective and reversible inhibitor of rat P2X7 receptors; North, supra).

RGCs [3] = test: Prevention of ATP-induced RGC damage in isolated rat retinas by P2X blockers; assay type: cell-based; details: 2 hour preincubation in ACSF containing 300 μM oATP or 0.5 μM BBG
Source text: as §1, with “In some experiments, RGCs were preincubated with oxidized-ATP (oATP) for 2 hours or with Brilliant BlueG (BBG) for 30 minutes prior to imaging.” left out
Incubation of isolated rat retinas in 1 mM ATP induced the same effects obtained with repeated pressure increments, causing cell blebbing and uptake of PI in all the RGCs tested (35/35 tested) within 1 hour, except in α-type RGCs (0/15). […]

RGCs [4] = test: Pressure transients in vivo, PI staining of cells in the ganglion cell layer; set-up: species or system rat; details: apyrase 30 U/ml intraocularly 5 minutes before pressure; 2 minutes at 50 mm Hg; retinas isolated after one hour
Experimental: Pressure transients in vivo: Adult Long Evans rats were deeply anaesthetized by intraperitoneal injection with Avertine (10 ml/kg body weight, 3.3% tri-bromo-ethanol, 2% tertiary amyl-alcohol in saline) and their right eyes were incannulated with a 30 Gauge needle connected to a pressure apparatus, which was a column of ACSF held at appropriate height. Eye pressure was increased to 50 mm Hg for 2 minutes by switching on the connection between the needle and the column of ACSF. A piezo-resistive pressure sensor (RS Electronics) controlled pressure values and line tightness. […] After pressure application, the animals were returned to their cages for recovery. Retinas were isolated after one hour. Control eyes were incannulated, but no pressure transient was applied. To analyze the effects of blocking eATP in vivo, 2 μl apyrase (30 U/ml intraocular concentration) were injected intraocularly 5 minutes before pressure application. To evaluate cell damage, PI labeled cells were imaged across the retinal area in 10 evenly spaced (370×250 μm^2) sample fields per retina. This dye permits assessment of membrane integrity, as cells with reduced membrane integrity are permeable to and become stained with the dyes. Retina dissection, histological and immunocytochemical treatments for long term analysis were performed as described (Galli-Resta et al. (1997) J. Neurosci. 17:7831-7838). […]

RGC light response = test: Extracellular electrophysiological recordings in the optic tract, RGC light response after IOP transient; assay type: in vivo, rat
Experimental: Extracellular electrophysiological recordings: Experimental procedures for extracellular electrophysiological recordings are as described (Caleo et al. (2003) J. Neurosci. 23(1):287-296.). Briefly, rats aged between P25 and P30 were anesthetized with urethane (20% solution in saline; 0.7 ml/100 g of body weight, i.p.; Sigma) and placed in a stereotaxic frame. Both eyes were fixed by means of adjustable metal rings surrounding the external portion of the eye bulb. Body temperature was continuously monitored and maintained at 37° C. by a thermostat-controlled electric blanket. […]
Experiments were conducted to determine (1) whether intraocular injection of apyrase had any deleterious effects on RGC firing activity and light response, and (2) whether intraocular injection of apyrase had any effect on RGC light response recovery following a transient IOP elevation in vivo. Multi-unit spike activity evoked by a light flash was recorded in the optic tract at five minute intervals before and after an IOP pulse at 90 mmHg for 1 minute. […] Quantifying response as the average firing rate in the interval 0-2 seconds after flash onset, the average maximal response decrement was 80±16%; N=15, and the average time needed to recover at least 85% of the initial response was 32±4 minutes after the IOP spike. […]

[5] = two hours after ATP application

Compound: Nc1ncnc2c1ncn2[C@@H]1O[C@H](COP(=O)(O)OP(=O)(O)OP(=O)(O)O)[C@@H](O)[C@H]1O [ATP, adenosine 5′-triphosphate]
- cell blebbing and uptake of PI, affected/tested RGCs (RGCs [1]; 1 mM ATP, within 1 hour, RGCs other than α-type): 35/35
- cell blebbing and uptake of PI, affected/tested α-type RGCs (RGCs [1]; 1 mM ATP, within 1 hour, α-type RGCs): 0/15
- cell soma shrinkage or fragmentation, RGCs (RGCs [1]; [5]): 10/10
- phosphatidylserine exposure on the external membrane (Annexin V binding), RGCs (RGCs [1]; [5]): 7/7

Compound: CCOc1ccc(Nc2ccc(/C(=C3C=C/C(=[N+](/CC)Cc4cccc(S(=O)(=O)[O-])c4)C=C/3C)c3ccc(N(CC)Cc4cccc(S(=O)(=O)O)c4)cc3C)cc2)cc1 [BBG, Brilliant BlueG]
- signs of pressure induced RGC damage (RGCs [2]): prevented all signs of pressure induced RGC damage
- ATP-induced RGC damage, damaged/tested non-α-RGCs (RGCs [3]): 0/15

Compound: Nc1ncnc2c1ncn2[C@@H]1O[C@H](COP(=O)(O)OP(=O)(O)OP(=O)(O)O)[C@@H](OC(=O)c2ccc(C(=O)c3ccccc3)cc2)[C@H]1O [BzATP, 2′,3′-benzoyl-4-benzoyl-ATP]
- cell blebbing and uptake of PI, affected/tested non-α-RGCs (RGCs [1]; 0.1 mM BzATP): 10/10

Compound: Nc1ncnc2c1ncn2[C@@H](C=O)O[C@@H](C=O)COP(=O)(O)OP(=O)(O)OP(=O)(O)O [oATP, oxidized-ATP]
- signs of pressure induced RGC damage (RGCs [2]): prevented all signs of pressure induced RGC damage
- ATP-induced RGC damage, damaged/tested non-α-RGCs (RGCs [3]): 0/20

Compound: apyrase
- signs of pressure induced RGC damage (RGCs [2]): prevented all signs of pressure induced RGC damage
- blebbing or permeability to PI when pressure applied (RGCs [2]; in the presence of apyrase 30 U/ml): no blebbing or permeability to PI was observed
- pressure-induced RGC damage in vivo (PI staining) (RGCs [4]): totally prevented
- spike activity before pressure application (RGC light response; apyrase 30 U/ml intraocularly): not significantly altering
- average response recovery-time (at least 85% of initial response) (RGC light response; apyrase 30 U/ml intraocularly 1-3 hours before IOP pulse at 90 mmHg for 1 minute, N=8): 11.2 ± 2.6 min

Source: US20100074884A1, “INHIBITION OF NEURONAL DAMAGE” (DUSKA SCIENTIFIC CO., priority 2005, published 2010)
